We go through 12 compounds from patent publication US7465743B2, “Pyrazolo[3,4-b]pyridine compounds, and their use as PDE4 inhibitors” (Glaxo Group Limited, priority 2004, dated 2008).

Data set [1] addresses T1, PDE4B (human recombinant) (Homo sapiens, UniProt Q07343).
T1 construct: made in house
Nature of the data set: Inhibition of PDE4B activity (radioactive SPA assay or IMAP FP assay). It counts as biochemical. The following applies: specific Examples; for Selectivity (PDE4B/PDE5 EMR ratio, not log scale): ratio PDE4B vs PDE5, not log scale; for IC50: one reading or average of ca. 2-6 readings, read-out: PDE4B pIC50 (± about 0.5) (converted). From the text: Human recombinant PDE4B, in particular the 2B splice variant thereof (HSPDE4B2B), is disclosed in WO 94/20079 and also M. M. McLaughlin et al., “A low Km, rolipram-sensitive, cAMP-specific phosphodiesterase from human brain: cloning and expression of cDNA, biochemical characterisation of recombinant protein, and tissue distribution of mRNA”, J. Biol. Chem., 1993, 268, 6470-6476. For example, in Example 1 of WO 94/20079, human recombinant PDE4B is described as being expressed in the PDE-deficient yeast Saccharomyces cerevisiae strain GL62, e.g. after induction by addition of 150 uM CuSO4, and 100,000×g supernatant fractions of yeast cell lysates are described for use in the harvesting of PDE4B enzyme.
(§1) Inhibition of PDE 3, PDE 4B, PDE 4D, PDE 5 or PDE 6 Activity: Radioactive Scintillation Proximity Assay (SPA)
(§2) The ability of compounds to inhibit catalytic activity at PDE4B or 4D (human recombinant), PDE3 (from bovine aorta), PDE5 (human recombinant) or PDE6 (from bovine retina) is determined by Scintillation Proximity Assay (SPA) in 96-well format. Test compounds (as a solution in DMSO, preferably about 2 microliter (ul) volume of DMSO solution) are preincubated at ambient temperature (room temperature, e.g. 19-23° C.) in Wallac Isoplates (code 1450-514) with PDE enzyme in 50 mM Tris-HCl buffer pH 7.5, 8.3 mM MgCl2, 1.7 mM EGTA, 0.05% (w/v) bovine serum albumin for 10-30 minutes (usually 30 minutes). The enzyme concentration is adjusted so that no more than 20% hydrolysis of the substrate defined below occurs in control wells without compound, during the incubation. For the PDE3, PDE4B and PDE4D assays, [5′,8-^3H]Adenosine 3′,5′-cyclic phosphate (Amersham Pharmacia Biotech, code TRK.559; or Amersham Biosciences UK Ltd, Pollards Wood, Chalfont St Giles, Buckinghamshire HP8 4SP, UK) is added to give 0.05 uCi per well and ˜10 nM final concentration. For the PDE5 and PDE6 assays, [8-^3H]Guanosine 3′,5′-cyclic phosphate (Amersham Pharmacia Biotech, code TRK.392) is added to give 0.05 uCi per well and ˜36 nM final concentration. Plates containing assay mixture, preferably approx. 100 ul volume of assay mixture, are mixed on an orbital shaker for 5 minutes and incubated at ambient temperature for 1 hour. Phosphodiesterase SPA beads (Amersham Pharmacia Biotech, code RPNQ 0150) are added (˜1 mg per well) to terminate the assay. Plates are sealed and shaken and allowed to stand at ambient temperature for 35 minutes to 1 hour (preferably 35 minutes) to allow the beads to settle. Bound radioactive product is measured using a WALLAC TRILUX 1450 Microbeta scintillation counter. For inhibition curves, 10 concentrations (1.5 nM-30 uM) of each compound are assayed. Curves are analysed using ActivityBase and XLfit (ID Business Solutions Limited, 2 Ocean Court, Surrey Research Park, Guildford, Surrey GU2 7QB, United Kingdom) Results are expressed as pIC50 values.
Inhibition of PDE4B or PDE4D Activity: Fluorescence Polarisation (FP) Assay
The ability of compounds to inhibit catalytic activity at PDE4B (human recombinant) or PDE4D (human recombinant) is determined by IMAP Fluorescence Polarisation (FP) assay (IMAP Explorer kit, available from Molecular Devices Corporation, Sunnydale, Calif., USA; Molecular Devices code: R8062) in 384-well format. The IMAP FP assay is able to measure PDE activity in an homogenous, non-radioactive assay format. The FP assay uses the ability of immobilised trivalent metal cations, coated onto nanoparticles (tiny beads), to bind the phosphate group of Fl-AMP that is produced on the hydrolysis of fluorescein-labelled (Fl) cyclic adenosine mono-phosphate (Fl-cAMP) to the non-cyclic Fl-AMP form. […] Binding of Fl-AMP product to the beads (coated with the immobilised trivalent cations) slows the rotation of the bound Fl-AMP and leads to an increase in the fluorescence polarisation ratio of parallel to perpendicular light. Inhibition of the PDE reduces/inhibits this signal increase. […]

The target in data set [2] is PDE5 (human recombinant) (Homo sapiens, UniProt O76074). Nature of the data set: Inhibition of PDE5 activity (radioactive SPA assay). It counts as biochemical. The following applies: specific Examples; one reading or average of ca. 2-6 readings; read-out: PDE5 pIC50 (± about 0.5) (converted).
Excerpt: Human recombinant PDE5 is disclosed in K. Loughney et al., “Isolation and characterisation of cDNAs encoding PDE5A, a human cGMP-binding, cGMP-specific 3′,5′-cyclic nucleotide phosphodiesterase”, Gene, 1998, 216, 139-147.
as §1, §2
Biological Data obtained for some of the Examples (PDE4B and/or PDE5 inhibitory activity, either as one reading or as an average of ca. 2-6 readings) are as follows, based on current measurements only. In each of the SPA and FP assays, absolute accuracy of measurement is not possible, and the readings given are accurate only up to about ±0.5 of a log unit, depending on the number of readings made and averaged: […]

The test system of data set [3] is LPS-induced pulmonary neutrophilia. Nature of the data set: In Vivo Assay 4: LPS-induced pulmonary neutrophilia in the conscious ferret. Also on record: species or system ferret (Mustela Pulorius Furo). The following applies: p.o. How it is done: (§3) In Vivo Assay 4. Evaluation of Therapeutic Index of Orally-administered PDE 4 inhibitors in the conscious ferret
(§4) PDE4 inhibitors are prepared for oral (p.o.) administration by dissolving in a fixed volume (1 ml) of acetone and then adding cremophor to 20% of the final volume. Acetone is evaporated by directing a flow of nitrogen gas onto the solution. Once the acetone is removed, the solution is made up to final volume with distilled water. LPS is dissolved in phosphate buffered saline.
Male ferrets (Mustela Pulorius Furo, weighing 1-2 kg) are transported and allowed to acclimatise for not less than 7 days. The diet comprises SDS diet C pelleted food given ad lib with Whiskers™ cat food given 3 times per week. […]
(§5) PDE4 inhibitors are administered orally (p.o.), using a dose volume of 1 ml/kg. […] The animals are constantly observed and any emetic episodes (retching and vomiting) or behavioural changes are recorded. […]
(§6) Thirty minutes after oral dosing with compound or vehicle control, the ferrets are placed into sealed perspex containers and exposed to an aerosol of LPS (30 μg/ml) for 10 minutes. […] All emetic episodes and behavioural changes are recorded.
Six hours after LPS exposure the animals are killed by overdose of sodium pentobarbitone administered intraperitoneally. […] From this, the total number of neutrophils in the BAL sample is determined. […]

The test system of data set [4] is conscious ferret (emesis). The data set can be described thus: In Vivo Assay 4: emetic episodes in the conscious ferret after oral PDE4 inhibitor; therapeutic index. The arrangement: species or system ferret (Mustela Pulorius Furo). The following applies: p.o. The protocol: as §3, §4
Male ferrets (Mustela Pulorius Furo, weighing 1-2 kg) are transported and allowed to acclimatise for not less than 7 days. […]
as §5, §6
b) Emetic episodes—the number of vomits and retches are counted to determine the dose of PDE4 inhibitor that gives a 20% incidence of emesis (D20).
c) A therapeutic index (TI), using this assay, is then calculated for each PDE4 inhibitor using the following equation: […]

T1 sequence (Q07343 1-564 isoform Q07343-2): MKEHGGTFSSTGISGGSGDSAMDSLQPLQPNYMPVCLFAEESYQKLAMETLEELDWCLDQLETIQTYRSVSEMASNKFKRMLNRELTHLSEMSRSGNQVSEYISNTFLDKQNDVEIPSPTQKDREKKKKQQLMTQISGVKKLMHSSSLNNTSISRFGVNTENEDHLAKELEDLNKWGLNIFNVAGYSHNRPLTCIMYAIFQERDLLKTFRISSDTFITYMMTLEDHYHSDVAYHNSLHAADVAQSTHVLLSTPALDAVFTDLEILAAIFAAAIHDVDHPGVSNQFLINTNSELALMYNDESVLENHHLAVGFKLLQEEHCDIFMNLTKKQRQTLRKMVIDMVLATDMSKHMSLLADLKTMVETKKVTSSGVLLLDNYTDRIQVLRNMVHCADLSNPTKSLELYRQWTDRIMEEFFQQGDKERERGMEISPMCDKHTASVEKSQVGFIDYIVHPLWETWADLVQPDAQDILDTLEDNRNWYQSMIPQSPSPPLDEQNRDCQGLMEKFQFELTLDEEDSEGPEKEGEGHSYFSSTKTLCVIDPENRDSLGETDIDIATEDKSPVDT

As for `CCCCNC(=O)c1cnc2c(cnn2CC)c1NCCCC` [4-butylamino-1-ethyl-pyrazolo[3,4-b]pyridine-5-(N-butyl)carboxamide, reference compound], in data set [1], the “Selectivity (PDE4B/PDE5 EMR ratio, not log scale)” value stood at 2 and the IC50 is 158 nM. Also, in data set [2], the IC50 was 398 nM.
The matching figures for `CCC(C)Nc1c(C(=O)Nc2ccccc2)cnc2c1cnn2C(C)C` (stereo not drawn) [Comparative Example 61, reference compound]: 21, 200 nM and 5010 nM.
In the case of `CCn1ncc2c(N[C@H](C)C(C)C)c(C(=O)NCc3ccccc3)cnc21` [Example 1, N-Benzyl-4-{[(1R)-1,2-dimethylpropyl]amino}-1-ethyl-1H-pyrazolo[3,4-b]pyridine-5-carboxamide], in data set [1], the “Selectivity (PDE4B/PDE5 EMR ratio, not log scale)” value is given as 66 and the IC50 was 15.8 nM. Moreover, in data set [2], the IC50 was 1000 nM.
Taken in the same sequence, the figures for `CCn1ncc2c(N[C@H](C)C(C)C)c(C(=O)Nc3ccc(F)cc3)cnc21` [Example 2, 4-{[(1R)-1,2-Dimethylpropyl]amino}-1-ethyl-N-(4-fluorophenyl)-1H-pyrazolo[3,4-b]pyridine-5-carboxamide] were 135, 63.1 nM and 7940 nM.
The matching figures for `CCn1ncc2c(N[C@@H](C)C(C)C)c(C(=O)NCc3ccccc3)cnc21` [Example 38, N-Benzyl-4-{[(1S)-1,2-dimethylpropyl]amino}-1-ethyl-1H-pyrazolo[3,4-b]pyridine-5-carboxamide]: 501, 20 nM and 10000 nM.
The matching figures for `CCn1ncc2c(N[C@@H](C)C(C)C)c(C(=O)Nc3ccc(F)cc3)cnc21` [Example 39, 4-{[(1S)-1,2-Dimethylpropyl]amino}-1-ethyl-N-(4-fluorophenyl)-1H-pyrazolo[3,4-b]pyridine-5-carboxamide]: “≧468”, 63.1 nM and above 30200 nM.
Turning to `CCC(CC)CNC(=O)c1cnc2c(cnn2CC)c1N[C@@H](C)C(C)C` [Example 51, 4-{[(1S)-1,2-Dimethylpropyl]amino}-1-ethyl-N-(2-ethylbutyl)-1H-pyrazolo[3,4-b]pyridine-5-carboxamide], in data set [1], the “Selectivity (PDE4B/PDE5 EMR ratio, not log scale)” value was found to be 437 and the IC50 is 7.94 nM. For the same compound, the IC50 in data set [2] was 3980 nM.
On to `CCn1ncc2c(NC(C)(C)C)c(C(=O)NCc3ccccc3)cnc21` [Example 53, 4-(tert-Butylamino)-1-ethyl-N-benzyl-1H-pyrazolo[3,4-b]pyridine-5-carboxamide], for which the “Selectivity (PDE4B/PDE5 EMR ratio, not log scale)” value in data set [1] turned out to be 240. The IC50 is 15.8 nM in data set [1] and 3980 nM in data set [2].
Taken in the same sequence, the figures for `CCn1ncc2c(NC(C)(C)C)c(C(=O)Nc3ccc(F)cc3)cnc21` [Example 54, 4-(tert-Butylamino)-1-ethyl-N-(4-fluorophenyl)-1H-pyrazolo[3,4-b]pyridine-5-carboxamide] were “≧309”, 100 nM and above 30200 nM.
`CC[C@@H](C)Nc1c(C(=O)NCc2ccccc2)cnc2c1cnn2CC` [compound 58, reference compound]: the IC50 is 15.8 to 63.1 nM in data set [1] and 631 to 3160 nM in data set [2].
Taken in the same sequence, the figures for `CC[C@H](C)Nc1c(C(=O)NCc2ccccc2)cnc2c1cnn2CC` [compound 59, reference compound] were 15.8 to 63.1 nM and 631 to 3160 nM.
In the case of `O=C(Nc1c(Cl)cncc1Cl)c1ccc(OC(F)F)c(OCC2CC2)c1` [roflumilast], in data set [3], the “D50 for ferret neutrophilia (dose which gives 50% inhibition of LPS-induced pulmonary neutrophilia)” value is reported as “about 0.42 mg/kg”. In data set [4], the “D20 for emesis (dose that gives a 20% incidence of emesis)” value is “about 0.46 mg/kg”.
